What was measured:
Assay in all cases: relative viability (nuclei count vs DMSO), 5 days (fraction); higher = more cells survive
BX 795 + Pictilisib = compound: O=C(NCCCNc1nc(Nc2cccc(NC(=O)N3CCCC3)c2)ncc1I)c1cccs1 [BX 795] + CS(=O)(=O)N1CCN(Cc2cc3nc(-c4cccc5[nH]ncc45)nc(N4CCOCC4)c3s2)CC1 [Pictilisib] (partner 1 µM)
Summary of the method: (§1)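 After 5 days of treatment, lung cancer cells in 1536-well plates were fixed and stained in a single step (final 0.05% Triton X-100, 1% formaldehyde, 1 ug/ml Hoechst) and their nuclei counted on 4× images. Treatment had been applied by pin tool the day after seeding as one drug alone or as a fixed anchor-drug dose with five library-drug doses (not always all listed) in √10 steps. Relative viability is the nuclei count of treated wells divided by that of vehicle wells, and values are medians of duplicate plates.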

BX 795 + Decitabine = compound: O=C(NCCCNc1nc(Nc2cccc(NC(=O)N3CCCC3)c2)ncc1I)c1cccs1 [BX 795] + Nc1ncn([C@H]2C[C@H](O)[C@@H](CO)O2)c(=O)n1 [Decitabine] (partner 2 µM)
Summary of the method: as §1

BX 795 + Trametinib = compound: O=C(NCCCNc1nc(Nc2cccc(NC(=O)N3CCCC3)c2)ncc1I)c1cccs1 [BX 795] + CC(=O)Nc1cccc(-n2c(=O)n(C3CC3)c(=O)c3c(Nc4ccc(I)cc4F)n(C)c(=O)c(C)c32)c1 [Trametinib] (partner 0.02 µM)
Summary of the method: as §1

BX 795 + AZD7762 = compound: O=C(NCCCNc1nc(Nc2cccc(NC(=O)N3CCCC3)c2)ncc1I)c1cccs1 [BX 795] + NC(=O)Nc1cc(-c2cccc(F)c2)sc1C(=O)N[C@H]1CCCNC1 [AZD7762] (partner 0.2 µM)
Summary of the method: as §1

BX 795 + Pemetrexed = compound: O=C(NCCCNc1nc(Nc2cccc(NC(=O)N3CCCC3)c2)ncc1I)c1cccs1 [BX 795] + Nc1nc2[nH]cc(CCc3ccc(C(=O)N[C@@H](CCC(=O)O)C(=O)O)cc3)c2c(=O)[nH]1 [Pemetrexed] (partner 0.2 µM)
Summary of the method: as §1

Row | Cell Line | relative viability (BX 795 + Pictilisib; first compound 0.04 µM) | relative viability (BX 795 + Pictilisib; first compound 0.1265 µM) | relative viability (BX 795 + Pictilisib; first compound 0.4 µM) | relative viability (BX 795 + Pictilisib; first compound 1.265 µM) | relative viability (BX 795 + Decitabine; first compound 0.04 µM) | relative viability (BX 795 + Decitabine; first compound 0.1265 µM) | relative viability (BX 795 + Decitabine; first compound 0.4 µM) | relative viability (BX 795 + Decitabine; first compound 1.265 µM) | relative viability (BX 795 + Trametinib; first compound 0.04 µM) | relative viability (BX 795 + Trametinib; first compound 0.1265 µM) | relative viability (BX 795 + Trametinib; first compound 0.4 µM) | relative viability (BX 795 + Trametinib; first compound 1.265 µM) | relative viability (BX 795 + AZD7762; first compound 0.04 µM) | relative viability (BX 795 + AZD7762; first compound 0.1265 µM) | relative viability (BX 795 + AZD7762; first compound 0.4 µM) | relative viability (BX 795 + AZD7762; first compound 1.265 µM) | relative viability (BX 795 + Pemetrexed; first compound 0.04 µM) | relative viability (BX 795 + Pemetrexed; first compound 0.1265 µM) | relative viability (BX 795 + Pemetrexed; first compound 0.4 µM) | relative viability (BX 795 + Pemetrexed; first compound 1.265 µM)
1 | NCI-H358 | 0.387 | 0.251 | 0.327 | 0.245 | 0.351 | 0.236 | 0.339 | 0.183 | 0.158 | 0.124 | 0.111 | 0.114 | 0.518 | 0.556 | 0.372 | 0.433 | 0.167 | 0.168 | 0.134 | 0.123
2 | RERF-LC-KJ | 0.488 | 0.574 | 0.536 | 0.446 | 0.762 | 0.759 | 0.792 | 0.56 |  | 0.962 | 0.878 | 0.788 | 1.16 | 1.05 | 1.11 | 0.86 |  | 0.444 | 0.443 | 0.467
3 | IA-LM | 0.367 | 0.311 | 0.531 | 0.332 |  |  |  |  |  |  |  |  |  |  |  |  |  |  |  | 
4 | LOU-NH91 | 0.509 | 0.507 | 0.541 | 0.5 | 0.818 | 0.791 | 0.803 | 0.798 | 0.724 | 0.788 | 0.763 | 0.734 | 0.757 | 0.765 | 0.71 | 0.722 | 0.321 | 0.38 | 0.294 | 0.377
5 | NCI-H1975 | 0.3 | 0.328 | 0.26 | 0.224 | 0.434 | 0.472 | 0.35 | 0.359 | 0.383 | 0.358 | 0.316 | 0.316 | 0.705 | 0.792 | 0.67 | 0.564 | 0.272 | 0.299 | 0.247 | 0.297
6 | NCI-H2342 |  |  |  |  | 0.87 | 0.686 | 0.823 | 0.641 | 0.796 | 0.774 | 0.892 | 0.766 | 0.591 | 0.538 | 0.481 | 0.399 | 0.782 | 0.718 | 0.758 | 0.715
7 | NCI-H1793 | 0.399 | 0.333 | 0.333 | 0.257 | 0.589 | 0.443 | 0.674 | 0.374 | 0.404 | 0.403 | 0.526 | 0.344 | 0.425 | 0.447 | 0.484 | 0.487 | 0.872 | 0.628 | 0.856 | 0.711
8 | NCI-H1563 | 0.689 | 0.522 | 0.659 | 0.673 |  |  |  |  |  |  |  |  |  |  |  |  | 0.977 | 0.759 | 0.857 | 0.746
9 | CAL-12T | 0.543 | 0.452 | 0.368 | 0.32 |  |  |  |  | 0.273 | 0.298 | 0.322 | 0.24 | 0.555 | 0.617 | 0.609 | 0.584 | 1.1 | 1.28 | 0.809 | 0.494
10 | COR-L23 | 0.909 | 0.899 | 0.75 | 0.538 | 0.53 | 0.42 | 0.516 | 0.319 | 0.622 | 0.628 | 0.509 | 0.344 |  |  |  |  | 0.204 | 0.188 | 0.176 | 0.171
11 | ABC-1 | 0.507 | 0.555 | 0.634 | 0.661 | 1.03 |  | 1.3 | 1.49 |  |  |  |  | 0.83 | 0.924 | 0.745 | 0.838 |  |  |  | 
12 | NCI-H661 | 0.461 | 0.484 | 0.39 | 0.441 | 0.683 | 0.594 | 0.589 | 0.533 | 0.62 | 0.583 | 0.55 | 0.564 |  |  |  |  | 0.855 | 0.98 | 0.521 | 0.784
13 | NCI-H727 | 0.498 | 0.643 | 0.31 | 0.315 | 1.23 | 0.943 | 0.845 | 0.905 | 0.377 | 0.38 | 0.36 | 0.4 | 0.614 | 0.535 | 0.671 | 0.531 |  |  |  | 
14 | NCI-H2023 | 0.152 | 0.239 | 0.188 | 0.197 | 0.241 | 0.238 | 0.21 | 0.199 | 0.797 | 0.468 | 0.456 | 0.233 |  |  |  |  | 0.257 | 0.221 | 0.139 | 0.182
15 | SK-MES-1 | 0.372 | 0.32 | 0.322 | 0.382 | 0.503 | 0.358 | 0.392 | 0.39 | 0.574 | 0.46 | 0.519 | 0.396 |  |  |  |  | 0.923 | 0.854 | 0.612 | 0.649
16 | NCI-H522 |  |  |  |  | 0.556 | 0.657 | 0.73 | 0.71 | 0.84 | 0.781 | 0.803 | 0.616 | 0.716 | 0.811 | 0.777 | 0.785 | 1.13 | 1.16 | 1.08 | 1.02
17 | SW 900 |  |  |  |  | 0.543 |  | 0.622 | 0.485 | 0.819 |  | 0.99 | 0.706 | 0.55 |  | 0.619 | 0.633 | 0.488 |  | 0.469 | 0.455
18 | NCI-H520 | 0.303 | 0.321 | 0.279 | 0.28 | 0.55 | 0.545 | 0.622 | 0.425 | 0.568 | 0.723 | 0.593 | 0.362 |  |  |  |  | 0.393 | 0.7 | 0.341 | 0.335
19 | NCI-H1650 | 0.698 | 0.576 | 0.517 | 0.498 | 0.571 | 0.471 | 0.548 | 0.644 | 0.6 | 0.493 | 0.551 | 0.504 |  |  |  |  | 0.392 | 0.431 | 0.243 | 0.416
20 | NCI-H2009 | 0.777 | 0.744 | 0.823 | 0.626 | 0.391 | 0.39 | 0.4 | 0.374 | 0.264 | 0.227 | 0.274 | 0.179 |  |  |  |  | 0.973 | 0.978 | 1.04 | 0.907

— the supplement of paper PMC10307832
